One assay deals with surface GluA1. The assay is described as follows: Surface AMPAR (GluA1) imaging along dendrites. Format: cell-based, mouse. The conditions noted are these: 16.7 µM, 6 h with BDNF, vs untreated and BDNF alone; for BDNF: BDNF alone vs baseline. As for the experimental part:
Our procedure to label surface AMPARs containing the GluA1 subunit was adapted from two reports[14],[61]. Precisely, DIV14 primary cortical neurons cultured on coverslips were rinsed once with room temperature PBS^MC (PBS containing 0.5 mM CaCl2, 1 mM MgCl2, and 4% sucrose). Live cells were then incubated for 30 min at room temperature with GluA1 primary antibody solution (PBS^MC with antibody against the extracellular N-terminus of GluA1 (EMD Millipore Corp, clone RH95, 5.0 µg ml^−1)). Next, cells were rinsed twice with ice-cold PBS^MC followed by fixation with 4% paraformaldehyde + 4% sucrose solution for 15 min at room temperature. After fixation, neurons were washed with regular PBS and then incubated overnight with Map2 primary antibody solution (PBS with 0.125% Triton X-100, 5% normal goat serum, and anti-Map2 antibody) to label dendrites. Next day, coverslips were washed with PBS, incubated with appropriate secondary antibodies for 1 h at room temperature, and finally mounted on glass slides with ProLong Antifade reagent (Invitrogen).
Quantification of surface GluA1 puncta was performed according to the following strategy. First, overlapping digital images of GluA1 and Map2 immunostainings were collected using a Zeiss AxioObserver Z1 inverted microscope and ×63 oil immersion objective. Second, thresholding and segmentation based on the Map2 images was used to remove GluA1 signals outside of dendritic processes. Importantly, the same background/foreground cutoff threshold was used for images of all experimental conditions. Third, the length of dendrites for each image set was measured and recorded. Finally, distinct GluA1 foreground objects along dendrites >5 pixels were counted using the particle analysis tool in ImageJ and presented as the average number of GluA1 puncta per µm of dendrite length for each experimental condition.

For a further assay, the system named is acetyl-H3K9. The assay is described as follows: Acetyl-H3K9 immunofluorescence in neuronal nuclei (multiplexed in screen). In kind it is cell-based, mouse. The conditions noted are these: screen, 16.7 µM. As for the experimental part:
To increase the throughput of our pharmacological screening for modulators of Arc, the above mentioned assay was adapted to cultures of mouse primary cortical neurons in 96-well plates.
Screening of compounds in the chemogenomic library was carried out using DIV13 primary forebrain cortical neurons cultured on poly-L-lysine/laminin-coated 96-well plates (Ibidi USA, Madison, WI). Cells were seeded at a density of 30,000 cells per well and treated with the compound library and BDNF according to the experimental design presented in Fig. 3a. After experimental treatment, cells were processed for Arc and acetyl-H3K9 immunocytochemistry according to the protocol described above. Both antigens (Arc and acetyl-H3K9) were imaged using an IN Cell Analyzer 6000 imaging system and a ×40 objective. […] High-throughput quantification of nuclear Arc immunofluorescence signal was performed in a similar fashion than the low-throughput procedure described above but with the exception that acetyl-H3K9 was used as a nuclear mask to guide the automated quantification of nuclear Arc immunofluorescence signal.

For the next assay, the target named is T1, HDAC1 (Homo sapiens, UniProt Q13547).
T1 construct: purchased BPS Bioscience (San Diego, CA), contract assay service
T1 sequence (Q13547 whole entry): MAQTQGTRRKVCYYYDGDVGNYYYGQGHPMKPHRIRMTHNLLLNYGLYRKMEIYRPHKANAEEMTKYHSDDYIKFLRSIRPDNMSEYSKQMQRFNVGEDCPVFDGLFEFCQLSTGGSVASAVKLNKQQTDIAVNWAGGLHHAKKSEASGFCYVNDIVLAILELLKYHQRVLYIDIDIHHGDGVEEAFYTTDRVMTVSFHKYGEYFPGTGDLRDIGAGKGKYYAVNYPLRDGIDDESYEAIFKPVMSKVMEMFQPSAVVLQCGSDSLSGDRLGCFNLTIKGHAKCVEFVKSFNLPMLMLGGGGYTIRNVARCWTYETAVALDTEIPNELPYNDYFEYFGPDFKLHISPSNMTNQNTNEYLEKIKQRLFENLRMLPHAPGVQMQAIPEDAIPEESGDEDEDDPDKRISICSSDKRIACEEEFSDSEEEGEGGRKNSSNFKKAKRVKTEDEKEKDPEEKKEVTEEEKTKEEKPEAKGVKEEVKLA
The assay is described as follows: Biochemical HDAC assay (BPS Bioscience), HDAC1. Conditions: 25 µM.

A further assay has as its target T2, HDAC5 (Homo sapiens, UniProt Q9UQL6).
T2 construct: purchased BPS Bioscience (San Diego, CA), contract assay service
The assay is described as follows: Biochemical HDAC assay (BPS Bioscience), HDAC5. The conditions noted are these: 25 µM.

The test system of another assay is GluA2 mRNA. The assay is described as follows: GluA2 mRNA by RT-qPCR in cortical neurons. Format: cell-based, mouse. The conditions noted are these: BDNF plus AK-7 16.7 µM vs BDNF plus vehicle, 6 h. As for the experimental part:
After experimental treatment, total RNA was isolated from primary cortical neuron cultures using the TRIzol method (Invitrogen). The concentration of total RNA was measured using a NanoDrop 1000 spectrophotometer (Thermo Fisher Scientific, Rockford, IL) and first-strand complementary DNA (cDNA) was synthesized using the iScript cDNA Synthesis Kit (Bio-Rad, Hercules, CA). Real-time PCRs were performed using gene-specific primers and monitored by quantification of SYBR Green I fluorescence using a Bio-Rad CFX96 Real-Time Detection System. Expression was normalized against Gapdh expression. The relative quantification from at least three biological replicates was performed using the comparative cycle threshold (∆∆CT) method.
Primers for real-time reverse transcription PCR experiments were: Arc, 5′-[…]-3′ (forward) and 5′-[…]-3′ (reverse); Map2, 5′-[…]-3′ (forward) and 5′-[…]-3′ (reverse); GluA1, 5′-[…]-3′ (forward) and 5′-[…]-3′ (reverse); GluA2, 5′-[…]-3′ (forward) and 5′-[…]-3′ (reverse); Gapdh, 5′-[…]-3′ (forward) and 5′-[…]-3′ (reverse).
Supplementary Fig. 6. […] Bars represent mean fold-change and error bars indicate range from five biological replicates.
On the technique in general: In qPCR the cycle at which signal appears reflects the starting amount.

The next assay addresses T3, HDAC3 (Homo sapiens, UniProt O15379).
T3 construct: purchased BPS Bioscience (San Diego, CA), contract assay service
The assay is described as follows: Biochemical HDAC assay (BPS Bioscience), HDAC3. Conditions: 25 µM.

T3 sequence (O15379 whole entry): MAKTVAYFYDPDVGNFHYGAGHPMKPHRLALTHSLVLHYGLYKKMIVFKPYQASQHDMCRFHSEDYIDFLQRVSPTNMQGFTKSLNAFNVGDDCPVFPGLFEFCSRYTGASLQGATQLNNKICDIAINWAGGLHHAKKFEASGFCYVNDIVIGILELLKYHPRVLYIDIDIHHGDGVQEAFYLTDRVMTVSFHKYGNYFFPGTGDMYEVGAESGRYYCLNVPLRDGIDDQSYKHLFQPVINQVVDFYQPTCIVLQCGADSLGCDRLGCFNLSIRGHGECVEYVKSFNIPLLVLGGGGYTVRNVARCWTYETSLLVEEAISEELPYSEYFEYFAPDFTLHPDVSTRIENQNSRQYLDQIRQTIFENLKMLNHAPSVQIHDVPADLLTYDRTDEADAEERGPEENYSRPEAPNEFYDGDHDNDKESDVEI
T3 sequence (Q9Y618 395-489 partner limits assumed): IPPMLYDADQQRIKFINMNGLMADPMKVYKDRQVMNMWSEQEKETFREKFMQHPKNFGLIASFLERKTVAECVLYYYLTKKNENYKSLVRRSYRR
T2 sequence (Q9UQL6 whole entry): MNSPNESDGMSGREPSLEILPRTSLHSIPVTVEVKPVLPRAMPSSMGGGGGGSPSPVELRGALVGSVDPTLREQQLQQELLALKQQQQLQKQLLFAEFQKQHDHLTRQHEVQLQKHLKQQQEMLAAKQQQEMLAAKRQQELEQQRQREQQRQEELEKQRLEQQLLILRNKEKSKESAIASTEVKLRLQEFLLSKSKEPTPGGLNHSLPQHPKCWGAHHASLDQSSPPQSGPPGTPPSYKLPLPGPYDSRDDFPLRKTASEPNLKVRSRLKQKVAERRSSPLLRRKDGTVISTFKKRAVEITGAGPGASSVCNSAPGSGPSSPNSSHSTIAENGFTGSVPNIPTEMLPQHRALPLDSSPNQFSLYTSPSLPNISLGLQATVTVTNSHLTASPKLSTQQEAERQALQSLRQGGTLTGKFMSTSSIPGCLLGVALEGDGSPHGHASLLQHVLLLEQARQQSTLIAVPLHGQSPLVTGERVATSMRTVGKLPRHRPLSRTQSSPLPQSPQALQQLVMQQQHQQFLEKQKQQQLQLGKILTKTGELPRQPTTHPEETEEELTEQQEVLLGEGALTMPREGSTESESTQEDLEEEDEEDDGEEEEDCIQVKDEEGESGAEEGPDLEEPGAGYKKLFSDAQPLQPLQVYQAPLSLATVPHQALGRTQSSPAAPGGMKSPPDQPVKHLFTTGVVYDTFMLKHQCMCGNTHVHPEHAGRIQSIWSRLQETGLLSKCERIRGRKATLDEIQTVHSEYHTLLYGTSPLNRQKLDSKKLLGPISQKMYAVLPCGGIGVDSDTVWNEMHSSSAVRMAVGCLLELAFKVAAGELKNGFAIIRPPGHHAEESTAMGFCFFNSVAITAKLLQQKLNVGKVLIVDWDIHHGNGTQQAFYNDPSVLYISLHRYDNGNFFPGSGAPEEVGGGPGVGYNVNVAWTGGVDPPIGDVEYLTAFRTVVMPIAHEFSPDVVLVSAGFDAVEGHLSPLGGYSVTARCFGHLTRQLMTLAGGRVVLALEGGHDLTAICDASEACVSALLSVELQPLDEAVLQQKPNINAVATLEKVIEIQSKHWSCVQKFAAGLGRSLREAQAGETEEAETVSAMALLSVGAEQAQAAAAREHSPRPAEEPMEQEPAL

Consider `O=C(Nc1cccc(Br)c1)c1cccc(S(=O)(=O)N2CCCCCC2)c1` [AK-7], for which the “surface GluA1 puncta per dendrite µm” value with surface GluA1 is listed as “significant decrease in surface GluA1 levels”. The “impact on acetyl-H3K9 immunofluorescence (Z-score)” value in the assay with acetyl-H3K9 is recorded as “increasing effect of intermediate intensity”. Also, the “inhibitory activity toward HDAC1” value against HDAC1 is on record as “failed to show any inhibitory activity”. In addition, the “inhibitory activity toward HDAC5” value against HDAC5 is reported as “failed to show any inhibitory activity”. In addition, the “GluA2 mRNA expression” value with GluA2 mRNA was “does not affect”. At HDAC3, the “inhibitory activity toward HDAC3” value is given as “failed to show any inhibitory activity”.

Source of the values: PMC5698418 (Nature Communications, 2017).
